Measurements published in patent publication US20230217926A1, “SELECTIVE HERBICIDES BASED ON SUBSTITUTED ISOXAZOLIN CARBOXAMIDES AND ISOXADIFEN-ETHYL” (BAYER AKTIENGESELLSCHAFT, priority 2020, published 2023).

What was measured:
Format in all cases: in vivo, maize
ZEAMA Abraxas = assay: Tank-mix post-emergence crop damage, greenhouse, visual assessment; parameters: key to Reduction [Difference]: % injury reduction: damage without minus with safener (0–100% scale); conditions: for HER effect + SAF / Reduction [%] / Reduction [Difference]: Final; for HER effect: no safener, Final assessment
Protocol: (§1) Seeds of crops (spring wheat, TRZAS; spring barley, HORVS; maize, ZEAMA) were placed in sandy loam soil in peat pots, covered with soil and cultivated in a greenhouse under good growth conditions. Two to three weeks after sowing, the test plants were treated at the 1 to 3-leaf stage. The herbicide/safener active compound combinations according to the invention, formulated as wettable powders or emulsion concentrates, and, in parallel tests, the correspondingly formulated individual active compounds were sprayed onto the green parts of the plants in various dosages using an amount of water of 300 l/ha (converted).
(§2) The pots were returned under good growing conditions in a glasshouse and a visual assessment of herbicidal effects was made at intervals from 1 to 3 weeks after herbicide application (DAT=days after treatment). Assessment was on a percentage basis in comparison with untreated control plants (0%=no injury, 100%=complete kill).
(§3) Reduction[Difference]=herbicide damage without safener−herbicide damage with safener Reduction[%]=(Reduction[Difference]*100)/herbicide damage without safener
b) Plant Species, Variety: ZEAMA Abraxas, Safener (SAF): Isoxadifen-Ethyl

ZEAMA Sileno [1] = assay: as above; parameters: key to Reduction [Difference]: % points: herbicide damage without safener − damage with safener; conditions: for HER effect + SAF / Reduction [%] / Reduction [Difference]: Final; for HER effect: no safener, Final assessment
Protocol: as §1, §2, §3
a) Plant Species, Variety: ZEAMA Sileno, Safener (SAF): Isoxadifen-Ethyl

ZEAMA Sileno [2] = assay: Safener seed treatment, pre-emergence herbicide, crop damage; parameters: key to Reduction [Difference]: % crop damage without safener minus % damage with safener; conditions: for Reduction [%] / Reduction [Difference]: isoxadifen-ethyl 0.25 g a.i./kg seed; for HER effect + SAF: isoxadifen-ethyl seed treatment 0.25 g a.i./kg seed; for HER effect: no safener
Protocol: For the safener seed treatment, sufficient seeds of the respective crops (spring wheat, TRZAS; spring barley, HORVS; maize, ZEAMA) were weighed into screw top glass bottles approximately twice the volume of the seeds.
The specified safeners, formulated as wettable powder (WP) were weighed out so that the specified rates (g a.i./kg seed) would be obtained, dissolved in water (1 ml water per 10 g of seeds), and added to the seeds to produce a slurry.
The bottles were capped and then placed in an overhead shaker (set at medium speed for ca. 60 minutes) so that the seeds were evenly coated with the slurry. The bottles were uncapped and the seeds were either placed on paper and dried for an interval of 3-4 hours prior to sowing, or directly sown. Seeds were placed in sandy loam soil in pots of a diameter of 7-8 cm, and covered with soil.
Pre-emergence application of the specified herbicides was done subsequently, on two sets of plants: a) seed treatment with safener, as described above
The herbicides were formulated as WP and was sprayed onto the soil surface as an aqueous suspension at an equivalent water application rate of 300 l/ha.
After application, the test plants were kept in the greenhouse under good growth conditions. At intervals up to 4 weeks after application (=28 days after treatment; DAT), % crop damage observed on the treated plants was scored visually in comparison to control plants that had not received any safener or herbicide treatment.
Values in the table below are mean values of at least 2 replicates.
Reduction[Difference]=herbicide damage without safener−herbicide damage with safener Reduction[%]=(Reduction[Difference]*100)/herbicide damage without safener […]
c) Plant Species, Variety: ZEAMA Sileno, Safener (SAF): Isoxadifen-Ethyl

[3] = HER 8 g a.i./ha + isoxadifen-ethyl 50 g a.i./ha
[4] = HER 8 g a.i./ha, isoxadifen-ethyl 50 g a.i./ha
[5] = HER 32 g a.i./ha + isoxadifen-ethyl 100 g a.i./ha
[6] = HER 32 g a.i./ha, isoxadifen-ethyl 100 g a.i./ha
[7] = HER 2 g a.i./ha, isoxadifen-ethyl 100 g a.i./ha
[8] = HER 40 g a.i./ha pre-emergence, 14 DAT
[9] = HER 40 g a.i./ha pre-emergence, 26 DAT
[10] = HER 80 g a.i./ha pre-emergence, 14 DAT

C=CC1(C(=O)NC2COC(C(=O)OC)C2)CC(c2cc(C)cc(F)c2)=NO1 (mixture of isomers) [Example 1.71]
HER effect + SAF (ZEAMA Abraxas; [3]): 17%
Reduction [%] (ZEAMA Abraxas; [4]): 71%
Reduction [Difference] (ZEAMA Abraxas; [4]): 41
HER effect (ZEAMA Abraxas; HER 8 g a.i./ha): 58%
HER effect + SAF (ZEAMA Abraxas; [5]): 35%
Reduction [%] (ZEAMA Abraxas; [6]): 62%
Reduction [Difference] (ZEAMA Abraxas; [6]): 56
HER effect (ZEAMA Abraxas; HER 32 g a.i./ha): 91%

C=CC1(C(=O)NC2C=C(C(=O)OC)OC2)CC(c2cc(C)cc(C)c2)=NO1 (centres unmarked) [Example 1.90]
HER effect + SAF (ZEAMA Abraxas; HER 2 g a.i./ha + isoxadifen-ethyl 100 g a.i./ha): 5%
Reduction [%] (ZEAMA Abraxas; [7]): 80%
Reduction [Difference] (ZEAMA Abraxas; [7]): 20
HER effect (ZEAMA Abraxas; HER 2 g a.i./ha): 25%

C=CC1(C(=O)NC2COC(C(=O)OCc3ccc(OC)cc3)C2)CC(c2cc(C)cc(F)c2)=NO1 (mixture of isomers) [Example 1.86]
HER effect + SAF (ZEAMA Abraxas; [3]): 12%
Reduction [%] (ZEAMA Abraxas; [4]): 63%
Reduction [Difference] (ZEAMA Abraxas; [4]): 20
HER effect (ZEAMA Abraxas; HER 8 g a.i./ha): 32%

COC(=O)C1=CC(NC(=O)C2(C)CC(c3cc(F)cc(F)c3)=NO2)CC1 (centres unmarked) [Example 1.63]
HER effect + SAF (ZEAMA Sileno [1]; [3]): 40%
Reduction [%] (ZEAMA Sileno [1]; [4]): 53%
Reduction [Difference] (ZEAMA Sileno [1]; [4]): 45
HER effect (ZEAMA Sileno [1]; HER 8 g a.i./ha): 85%
HER effect + SAF (ZEAMA Sileno [1]; [5]): 43%
Reduction [%] (ZEAMA Sileno [1]; [6]): 51%
Reduction [Difference] (ZEAMA Sileno [1]; [6]): 45
HER effect (ZEAMA Sileno [1]; HER 32 g a.i./ha): 88%
Reduction [%] (ZEAMA Sileno [2]; [8]): 50%
Reduction [Difference] (ZEAMA Sileno [2]; [8]): 30
Reduction [%] (ZEAMA Sileno [2]; [9]): 100%
Reduction [Difference] (ZEAMA Sileno [2]; [9]): 25
HER effect + SAF (ZEAMA Sileno [2]; [8]): 30%
HER effect + SAF (ZEAMA Sileno [2]; [9]): 0%
HER effect (ZEAMA Sileno [2]; [8]): 60%
HER effect (ZEAMA Sileno [2]; [9]): 25%

C=CC1(C(=O)NC2C=CC(C(=O)O)C2)CC(c2cc(F)cc(F)c2)=NO1 (centres unmarked) [Example 1.58]
HER effect + SAF (ZEAMA Abraxas; [3]): 17%
Reduction [%] (ZEAMA Abraxas; [4]): 73%
Reduction [Difference] (ZEAMA Abraxas; [4]): 45
HER effect (ZEAMA Abraxas; HER 8 g a.i./ha): 62%
HER effect + SAF (ZEAMA Abraxas; [5]): 15%
Reduction [%] (ZEAMA Abraxas; [6]): 84%
Reduction [Difference] (ZEAMA Abraxas; [6]): 80
HER effect (ZEAMA Abraxas; HER 32 g a.i./ha): 95%

CC1(C(=O)NC2C=CC(C(=O)OCCCl)C2)CC(c2cc(F)cc(F)c2)=NO1 (mixture of isomers) [Example 1.47]
HER effect + SAF (ZEAMA Abraxas; [5]): 38%
Reduction [%] (ZEAMA Abraxas; [6]): 39%
Reduction [Difference] (ZEAMA Abraxas; [6]): 24
HER effect (ZEAMA Abraxas; HER 32 g a.i./ha): 62%

CN(C)C(=O)SCCOC(=O)C1C=CC(NC(=O)C2(C)CC(c3cc(F)cc(F)c3)=NO2)C1 (centres unmarked) [Example 1.29]
HER effect + SAF (ZEAMA Sileno [1]; [3]): 25%
Reduction [%] (ZEAMA Sileno [1]; [4]): 58%
Reduction [Difference] (ZEAMA Sileno [1]; [4]): 35
HER effect (ZEAMA Sileno [1]; HER 8 g a.i./ha): 60%
HER effect + SAF (ZEAMA Sileno [1]; [5]): 25%
Reduction [%] (ZEAMA Sileno [1]; [6]): 67%
Reduction [Difference] (ZEAMA Sileno [1]; [6]): 50
HER effect (ZEAMA Sileno [1]; HER 32 g a.i./ha): 75%
Reduction [%] (ZEAMA Sileno [2]; [10]): 33%
Reduction [Difference] (ZEAMA Sileno [2]; [10]): 20
HER effect + SAF (ZEAMA Sileno [2]; [10]): 40%
HER effect (ZEAMA Sileno [2]; [10]): 60%

COCCOC(=O)C1C=CC(NC(=O)C2(CCl)CC(c3cc(F)cc(F)c3)=NO2)C1 (centres unmarked) [Example 1.1]
HER effect + SAF (ZEAMA Abraxas; [3]): 20%
Reduction [%] (ZEAMA Abraxas; [4]): 78%
Reduction [Difference] (ZEAMA Abraxas; [4]): 73
HER effect (ZEAMA Abraxas; HER 8 g a.i./ha): 93%
HER effect + SAF (ZEAMA Abraxas; [5]): 45%
Reduction [%] (ZEAMA Abraxas; [6]): 53%
Reduction [Difference] (ZEAMA Abraxas; [6]): 50
HER effect (ZEAMA Abraxas; HER 32 g a.i./ha): 95%

CC1(C(=O)NC2COC(C(=O)OCc3cccc(F)c3)C2)CC(c2cc(F)cc(F)c2)=NO1 (mixture of isomers) [Example 1.76]
HER effect + SAF (ZEAMA Abraxas; [3]): 33%
Reduction [%] (ZEAMA Abraxas; [4]): 63%
Reduction [Difference] (ZEAMA Abraxas; [4]): 57
HER effect (ZEAMA Abraxas; HER 8 g a.i./ha): 90%

COCCOC(=O)C1C=CC(NC(=O)C2(C(F)(F)F)CC(c3cc(F)cc(C#N)c3)=NO2)C1 (centres unmarked) [Example 1.2]
HER effect + SAF (ZEAMA Sileno [1]; [3]): 65%
Reduction [%] (ZEAMA Sileno [1]; [4]): 28%
Reduction [Difference] (ZEAMA Sileno [1]; [4]): 25
HER effect (ZEAMA Sileno [1]; HER 8 g a.i./ha): 90%
HER effect + SAF (ZEAMA Sileno [1]; [5]): 75%
Reduction [%] (ZEAMA Sileno [1]; [6]): 22%
Reduction [Difference] (ZEAMA Sileno [1]; [6]): 21
HER effect (ZEAMA Sileno [1]; HER 32 g a.i./ha): 96%
Reduction [%] (ZEAMA Sileno [2]; [10]): 78%
Reduction [Difference] (ZEAMA Sileno [2]; [10]): 35
HER effect + SAF (ZEAMA Sileno [2]; [10]): 10%
HER effect (ZEAMA Sileno [2]; [10]): 45%

COC(=O)C1C=CC(NC(=O)C2(C(F)(F)F)CC(c3cc(C)cc(F)c3)=NO2)C1 (mixture of isomers) [Example 1.22]
HER effect + SAF (ZEAMA Abraxas; [5]): 0%
Reduction [%] (ZEAMA Abraxas; [6]): 100%
Reduction [Difference] (ZEAMA Abraxas; [6]): 20
HER effect (ZEAMA Abraxas; HER 32 g a.i./ha): 20%

C=CC1(C(=O)NC2C=C(C(=O)OCCOC)OC2)CC(c2cc(C)cc(F)c2)=NO1 (centres unmarked) [Example 1.89]
HER effect + SAF (ZEAMA Abraxas; [3]): 3%
Reduction [%] (ZEAMA Abraxas; [4]): 90%
Reduction [Difference] (ZEAMA Abraxas; [4]): 27
HER effect (ZEAMA Abraxas; HER 8 g a.i./ha): 30%
HER effect + SAF (ZEAMA Abraxas; [5]): 17%
Reduction [%] (ZEAMA Abraxas; [6]): 62%
Reduction [Difference] (ZEAMA Abraxas; [6]): 28
HER effect (ZEAMA Abraxas; HER 32 g a.i./ha): 45%

C=CC1(C(=O)NC2CC=C(C(=O)OC)C2)CC(c2cc(F)cc(F)c2)=NO1 (mixture of isomers) [Example 1.60]
HER effect + SAF (ZEAMA Abraxas; [3]): 20%
Reduction [%] (ZEAMA Abraxas; [4]): 64%
Reduction [Difference] (ZEAMA Abraxas; [4]): 35
HER effect (ZEAMA Abraxas; HER 8 g a.i./ha): 55%
HER effect + SAF (ZEAMA Abraxas; [5]): 57%
Reduction [%] (ZEAMA Abraxas; [6]): 39%
Reduction [Difference] (ZEAMA Abraxas; [6]): 37
HER effect (ZEAMA Abraxas; HER 32 g a.i./ha): 94%

COC(=O)C1OCCC1NC(=O)C1(C)CC(c2cc(F)cc(F)c2)=NO1 (centres unmarked) [Example 1.92]
HER effect + SAF (ZEAMA Sileno [1]; [3]): 42%
Reduction [%] (ZEAMA Sileno [1]; [4]): 56%
Reduction [Difference] (ZEAMA Sileno [1]; [4]): 53
HER effect (ZEAMA Sileno [1]; HER 8 g a.i./ha): 95%
HER effect + SAF (ZEAMA Sileno [1]; [5]): 38%
Reduction [%] (ZEAMA Sileno [1]; [6]): 61%
Reduction [Difference] (ZEAMA Sileno [1]; [6]): 59
HER effect (ZEAMA Sileno [1]; HER 32 g a.i./ha): 97%
Reduction [%] (ZEAMA Sileno [2]; [8]): 93%
Reduction [Difference] (ZEAMA Sileno [2]; [8]): 70
Reduction [%] (ZEAMA Sileno [2]; [9]): 86%
Reduction [Difference] (ZEAMA Sileno [2]; [9]): 60
HER effect + SAF (ZEAMA Sileno [2]; [8]): 5%
HER effect + SAF (ZEAMA Sileno [2]; [9]): 10%
HER effect (ZEAMA Sileno [2]; [8]): 75%
HER effect (ZEAMA Sileno [2]; [9]): 70%
